Test results from patent publication US20140155384A1, “COMPOUNDS AND METHODS OF TREATING DIABETES” (Medivation Technologies, Inc., priority 2011, published 2014).

Assays:
[1] = biological target: T1, human recombinant adrenergic α1D receptor (Homo sapiens, UniProt P25100); assay: Radioligand binding, adrenergic α1D receptor ([3H]Prazosin); conditions: 0.1 μM compound; HEK-293 cells; 0.6 nM [3H]Prazosin; read-out: Percentage inhibition of ligand binding, Adrenergic α1D
T1 construct: expressed in transfected cells; host or cells: HEK-293
T1 sequence (P25100 1-572): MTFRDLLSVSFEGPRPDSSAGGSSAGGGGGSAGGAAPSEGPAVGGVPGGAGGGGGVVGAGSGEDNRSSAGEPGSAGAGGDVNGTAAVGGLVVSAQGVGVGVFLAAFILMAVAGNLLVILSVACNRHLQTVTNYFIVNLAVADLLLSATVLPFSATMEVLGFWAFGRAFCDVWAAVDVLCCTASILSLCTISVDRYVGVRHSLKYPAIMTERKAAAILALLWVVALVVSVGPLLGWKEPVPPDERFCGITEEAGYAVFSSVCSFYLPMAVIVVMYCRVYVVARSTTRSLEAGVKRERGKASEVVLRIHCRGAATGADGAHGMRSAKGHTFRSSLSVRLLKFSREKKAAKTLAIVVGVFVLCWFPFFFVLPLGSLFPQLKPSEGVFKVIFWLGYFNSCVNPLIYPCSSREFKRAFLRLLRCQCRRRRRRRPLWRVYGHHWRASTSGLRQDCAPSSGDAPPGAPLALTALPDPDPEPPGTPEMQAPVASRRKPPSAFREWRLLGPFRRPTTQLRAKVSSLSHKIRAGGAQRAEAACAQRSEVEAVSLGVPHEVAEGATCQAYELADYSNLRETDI
Procedure: Compounds were incubated with 0.6 nM [3H]Prazosin for 60 min at 25° C. Non-specific binding was estimated in the presence of 10 μM phentolamine. Receptor proteins were filtered and washed, the filters were then counted to determine [3H]Prazosin specifically bound. Compounds were screened at 1 μM or lower, using 1% DMSO as vehicle. Biochemical assay results are presented as the percent inhibition of specific binding in Table 2.

[2] = biological target: T2, rat adrenergic α1B receptor (Rattus norvegicus, UniProt P15823); assay: Radioligand binding, adrenergic α1B receptor ([3H]Prazosin); conditions: Wistar rat liver
T2 construct: rat adrenergic α1B receptor obtained from Wistar Rat liver; from tissue; host or cells: Wistar rat liver
T2 sequence (P15823 1-515): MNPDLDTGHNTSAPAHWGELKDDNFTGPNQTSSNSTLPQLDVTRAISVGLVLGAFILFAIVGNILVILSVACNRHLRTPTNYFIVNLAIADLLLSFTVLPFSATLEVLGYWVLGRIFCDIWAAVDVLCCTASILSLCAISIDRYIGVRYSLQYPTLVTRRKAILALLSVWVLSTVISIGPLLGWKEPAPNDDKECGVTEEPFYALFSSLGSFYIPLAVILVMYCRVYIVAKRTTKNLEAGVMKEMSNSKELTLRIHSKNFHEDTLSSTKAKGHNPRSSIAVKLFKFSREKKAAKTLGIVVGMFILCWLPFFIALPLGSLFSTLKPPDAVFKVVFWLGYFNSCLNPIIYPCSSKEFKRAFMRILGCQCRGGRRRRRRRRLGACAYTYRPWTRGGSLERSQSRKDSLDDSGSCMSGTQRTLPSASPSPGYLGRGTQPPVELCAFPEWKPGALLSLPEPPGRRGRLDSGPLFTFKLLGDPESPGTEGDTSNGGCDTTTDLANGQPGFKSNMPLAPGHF
Procedure, shortened: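 Wistar rat liver α1B receptor preparation incubated with 0.25 nM [3H]prazosin and compound for 60 min at 25° C in 50 mM Tris-HCl pH 7.4, 0.5 mM EDTA; nonspecific binding defined with 10 μM phentolamine.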

[3] = biological target: T3, human recombinant adrenergic α2A receptor (Homo sapiens, UniProt P08913); assay: Radioligand binding, adrenergic α2A receptor ([3H]MK-912); conditions: Sf9 cells, 1 nM [3H]MK-912; for inhibition at 0.03 µM / inhibition at 0.1 µM: read-out: Percentage inhibition of ligand binding, Adrenergic α2A
T3 construct: expressed in transfected cells; host or cells: insect Sf9 cells
T3 sequence (P08913 1-465): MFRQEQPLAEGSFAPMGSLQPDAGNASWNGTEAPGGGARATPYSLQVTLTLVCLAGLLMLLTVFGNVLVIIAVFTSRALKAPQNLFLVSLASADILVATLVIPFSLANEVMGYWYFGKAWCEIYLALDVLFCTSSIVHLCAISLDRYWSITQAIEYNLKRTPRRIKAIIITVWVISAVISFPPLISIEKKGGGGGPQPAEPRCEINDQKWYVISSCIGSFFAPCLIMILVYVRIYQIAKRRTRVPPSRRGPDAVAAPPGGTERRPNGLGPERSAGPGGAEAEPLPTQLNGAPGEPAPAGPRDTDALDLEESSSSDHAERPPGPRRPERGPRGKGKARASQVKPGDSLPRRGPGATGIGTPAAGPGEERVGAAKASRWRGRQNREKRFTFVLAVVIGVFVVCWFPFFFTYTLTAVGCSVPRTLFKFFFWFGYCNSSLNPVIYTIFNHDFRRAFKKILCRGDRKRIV
Procedure, shortened: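 Percent inhibition of specific [3H]MK-912 (1 nM) binding measured by filtration counting, compounds tested at ≤1 μM in 1% DMSO. Receptor: human α2A from Sf9 cells; incubation 60 min, 25 °C, pH 7.4; 10 μM WB-4101 defined nonspecific binding.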

[4] = 0.1 μM compound, read-out: Percentage inhibition of ligand binding, Adrenergic α1B

Structure (SMILES): Cc1ccc2c(c1)c1c(n2-c2ccccc2-c2ccc3c(ccn3C)c2)CCN(C)C1 [Compound No. 85, 2,8-dimethyl-5-(2-(1-methyl-1H-indol-5-yl)phenyl)-2,3,4,5-tetrahydro-1H-pyrido[4,3-b]indole]
- inhibition at 0.1 µM [1]: 62%
- inhibition at 0.1 µM [2, 4]: 36%
- inhibition at 0.03 µM ([3]; 0.03 μM compound): 80%
- inhibition at 0.1 µM ([3]; 0.1 μM compound): 89%

Structure (SMILES): COc1ccc(-c2cscc2-n2c3c(c4cc(C)ccc42)CN(C)CC3)cc1 [Compound 37]
- inhibition at 0.1 µM [1]: 79%
- inhibition at 0.1 µM [2, 4]: 77%
- inhibition at 0.03 µM ([3]; 0.03 μM compound): 81%
- inhibition at 0.1 µM ([3]; 0.1 μM compound): 88%

Structure (SMILES): Cc1ccc2c(c1)c1c(n2-c2cscc2-c2ccc3cnccc3c2)CCN(C)C1 [Compound No. 68]
- inhibition at 0.1 µM [1]: 68%
- inhibition at 0.1 µM [2, 4]: 61%
- inhibition at 0.03 µM ([3]; 0.03 μM compound): 76%
- inhibition at 0.1 µM ([3]; 0.1 μM compound): 86%

Structure (SMILES): Cc1ccc2c(c1)c1c(n2-c2cscc2-c2ccc(C)s2)CCN(C)C1 [Compound No. 79]
- inhibition at 0.1 µM [1]: 53%
- inhibition at 0.1 µM [2, 4]: 51%
- inhibition at 0.03 µM ([3]; 0.03 μM compound): 82%
- inhibition at 0.1 µM ([3]; 0.1 μM compound): 90%

Structure (SMILES): Cc1csc(-c2cscc2-n2c3c(c4cc(C)ccc42)CN(C)CC3)c1 [Compound 50]
- inhibition at 0.1 µM [1]: 51%
- inhibition at 0.1 µM [2, 4]: 42%
- inhibition at 0.03 µM ([3]; 0.03 μM compound): 82%
- inhibition at 0.1 µM ([3]; 0.1 μM compound): 88%

Structure (SMILES): Cc1ccc2c(c1)c1c(n2-c2cscc2-c2ccc(S(C)(=O)=O)cc2)CCN(C)C1 [Compound No. 76]
- inhibition at 0.1 µM [1]: 73%
- inhibition at 0.1 µM [2, 4]: 68%
- inhibition at 0.03 µM ([3]; 0.03 μM compound): 44%
- Percentage inhibition of ligand binding, Adrenergic α2A ([3]; 0.1 μM compound): 68%

Structure (SMILES): Cc1ccc2c(c1)c1c(n2-c2cscc2-c2ccc3c(ccn3C)c2)CCN(C)C1 [Compound 33]
- inhibition at 0.1 µM [1]: 69%
- inhibition at 0.03 µM ([2]; 0.03 μM compound, read-out: Percentage inhibition of ligand binding, Adrenergic α1B): 46%
- Percentage inhibition of ligand binding, Adrenergic α1B ([2]; 0.1 μM compound): 73%
- Percentage inhibition of ligand binding, Adrenergic α2A ([3]; 0.03 μM compound): 96%
- inhibition at 0.03 µM ([3]; 0.03 μM compound): 87%
- Percentage inhibition of ligand binding, Adrenergic α2A ([3]; 0.1 μM compound): 96%
- inhibition at 0.1 µM ([3]; 0.1 μM compound): 92%

Structure (SMILES): Cc1ccc2c(c1)c1c(n2-c2ccccc2-c2cccn2C)CCN(C)C1 [Compound No. 100, 2,8-dimethyl-5-(2-(1-methyl-1H-pyrrol-2-yl)phenyl)-2,3,4,5-tetrahydro-1H-pyrido[4,3-b]indole]
- inhibition at 0.1 µM [1]: 64%
- inhibition at 0.1 µM [2, 4]: 79%
- inhibition at 0.03 µM ([3]; 0.03 μM compound): 74%
- inhibition at 0.1 µM ([3]; 0.1 μM compound): 84%
